Assay results taken from ChEMBL document CHEMBL1142334, “Discovery of a novel class of selective human CB1 inverse agonists” (Bioorg Med Chem Lett, 2008).

Columns and labels:
[1] = molecular target: T1, Cannabinoid receptor 1 (Homo sapiens, UniProt P21554); test: Displacement of radioligand from human CB1 receptor expressed in HEK293 cells; assay type: cell-based
[2] = molecular target: Cannabinoid receptor 2 (Homo sapiens, UniProt P34972); test: Displacement of radioligand from human CB2 receptor expressed in HEK293 cells; assay type: cell-based
Sequence of Cannabinoid receptor 2 (P34972 whole entry): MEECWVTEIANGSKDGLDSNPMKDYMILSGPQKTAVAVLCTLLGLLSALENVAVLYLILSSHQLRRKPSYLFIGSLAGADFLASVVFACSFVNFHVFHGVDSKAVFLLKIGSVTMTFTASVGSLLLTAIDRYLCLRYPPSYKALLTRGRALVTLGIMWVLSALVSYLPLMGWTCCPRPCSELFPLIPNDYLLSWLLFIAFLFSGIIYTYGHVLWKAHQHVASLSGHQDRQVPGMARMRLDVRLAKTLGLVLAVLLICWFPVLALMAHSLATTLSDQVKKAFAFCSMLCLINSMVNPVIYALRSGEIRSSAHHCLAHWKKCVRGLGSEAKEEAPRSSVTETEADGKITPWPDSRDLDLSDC

[3] = molecular target: T1, Cannabinoid receptor 1; test: Inverse agonist activity at human CB1 receptor expressed in HEK293 EBNA cells by [35S]GTPgammaS incorporation assay; assay type: functional, cell-based
[4] = organism: Homo sapiens; test: Selectivity ratio, Ki for human CB2 receptor to Ki for human CB1 receptor
[5] = molecular target: T1, Cannabinoid receptor 1; test: Displacement of radioligand from human CB1 receptor expressed in HEK293 cells at 10 uM; assay type: cell-based

T1 sequence (P21554 whole entry): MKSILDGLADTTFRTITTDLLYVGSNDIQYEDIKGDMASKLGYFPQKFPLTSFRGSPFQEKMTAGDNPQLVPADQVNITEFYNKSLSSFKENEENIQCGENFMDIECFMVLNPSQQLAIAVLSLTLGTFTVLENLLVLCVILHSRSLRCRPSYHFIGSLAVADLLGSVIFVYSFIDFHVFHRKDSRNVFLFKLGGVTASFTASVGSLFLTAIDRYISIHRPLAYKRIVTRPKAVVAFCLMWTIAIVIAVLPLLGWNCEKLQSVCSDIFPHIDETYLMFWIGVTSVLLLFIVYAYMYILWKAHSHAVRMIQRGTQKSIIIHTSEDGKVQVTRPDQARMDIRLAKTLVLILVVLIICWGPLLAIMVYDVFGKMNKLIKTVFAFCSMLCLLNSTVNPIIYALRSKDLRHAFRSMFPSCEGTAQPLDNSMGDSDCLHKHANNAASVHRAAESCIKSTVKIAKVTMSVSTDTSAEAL

Row | SMILES | Ki [1] | Ki [2] | EC50 [3] | Ratio Ki [4] | inhibition [5]
1 | Cc1c(C(=O)NC2CCCc3ccccc32)oc2ccc(S(=O)(=O)N3CC(C)CC(C)C3)cc12 (stereo not drawn) | 5 nM | 22800 nM | 72.4 nM | 4560 | 96%
2 | CCN(CC)C(=O)c1oc2ccc(S(=O)(=O)N3CC(C)CC(C)C3)cc2c1C (stereo not drawn) |  |  |  |  | 89%
3 | CCN(CC)CCCNC(=O)c1oc2ccc(S(=O)(=O)N3CC(C)CC(C)C3)cc2c1C (stereo not drawn) |  |  |  |  | < 1%
4 | Cc1c(C(=O)Nc2ccccc2Cl)oc2ccc(S(=O)(=O)N3CC(C)CC(C)C3)cc12 (stereo not drawn) |  |  |  |  | 44%
5 | Cc1c(C(=O)NCc2ccccn2)oc2ccc(S(=O)(=O)N3CC(C)CC(C)C3)cc12 (stereo not drawn) |  |  |  |  | 10%
6 | Cc1c(C(=O)NC2CC2)oc2ccc(S(=O)(=O)N3CC(C)CC(C)C3)cc12 (stereo not drawn) |  |  |  |  | 83%
7 | COc1ccc(Cl)cc1NC(=O)c1oc2ccc(S(=O)(=O)N3CC(C)CC(C)C3)cc2c1C (stereo not drawn) |  |  |  |  | 12%
8 | Cc1c(C(=O)NCc2ccc(F)cc2)oc2ccc(S(=O)(=O)N3CC(C)CC(C)C3)cc12 (stereo not drawn) | 62 nM | 4000 nM |  | 65 | 95%
9 | Cc1c(C(=O)N(C)Cc2ccccc2)oc2ccc(S(=O)(=O)N3CC(C)CC(C)C3)cc12 (stereo not drawn) | 59 nM | 6600 nM |  | 112 | 93%
10 | Cc1c(C(=O)NCc2ccccc2Cl)oc2ccc(S(=O)(=O)N3CC(C)CC(C)C3)cc12 (stereo not drawn) | 58 nM | 4800 nM |  | 83 | 95%
11 | Cc1c(C(=O)N(C)Cc2ccccc2)oc2ccc(S(=O)(=O)N3CCCC3)cc12 |  |  |  |  | 20%
12 | Cc1cccc(NC(=O)c2oc3ccc(S(=O)(=O)N4CC(C)CC(C)C4)cc3c2C)c1C (stereo not drawn) |  |  |  |  | 84%
13 | Cc1c(C(=O)N(C)CCC#N)oc2ccc(S(=O)(=O)N3CC(C)CC(C)C3)cc12 (stereo not drawn) |  |  |  |  | 50%
14 | CCOc1ccccc1CNC(=O)c1oc2ccc(S(=O)(=O)N3CC(C)CC(C)C3)cc2c1C (stereo not drawn) | 97 nM | 9900 nM |  | 102 | 96%
15 | Cc1c(C(=O)N(C)CCc2ccccc2)oc2ccc(S(=O)(=O)N3CC(C)CC(C)C3)cc12 (stereo not drawn) | 172 nM |  |  |  | 92%
16 | Cc1c(C(=O)NCCc2ccccc2)oc2ccc(S(=O)(=O)N3CC(C)CC(C)C3)cc12 (stereo not drawn) | 198 nM | 6000 nM |  | 30 | 92%
17 | Cc1c(C(=O)N2CCCCCC2)oc2ccc(S(=O)(=O)N3CC(C)CC(C)C3)cc12 (stereo not drawn) | 193 nM | 4900 nM |  | 25 | 90%
18 | Cc1c(C(=O)Nc2cccc(Cl)c2)oc2ccc(S(=O)(=O)N3CC(C)CC(C)C3)cc12 (stereo not drawn) |  |  |  |  | 70%
19 | Cc1c(C(=O)N2CCN(C)CC2)oc2ccc(S(=O)(=O)N3CC(C)CC(C)C3)cc12 (stereo not drawn) |  |  |  |  | 27%
20 | Cc1c(C(=O)NCc2ccccc2)oc2ccc(S(=O)(=O)N3CC(C)CC(C)C3)cc12 (stereo not drawn) | 77 nM | 6600 nM |  | 86 | 92%
21 | CCN(CC)S(=O)(=O)c1ccc2oc(C(=O)N(C)Cc3ccccc3)c(C)c2c1 |  |  |  |  | 11%
22 | Cc1c(C(=O)NC2CCCCC2)oc2ccc(S(=O)(=O)N3CC(C)CC(C)C3)cc12 (stereo not drawn) | 108 nM | 17400 nM |  | 161 | 95%
23 | Cc1ccc(CNC(=O)c2oc3ccc(S(=O)(=O)N4CC(C)CC(C)C4)cc3c2C)cc1 (stereo not drawn) | 79 nM | 19100 nM |  | 242 | 93%
24 | Cc1c(C(=O)NCc2cccnc2)oc2ccc(S(=O)(=O)N3CC(C)CC(C)C3)cc12 (stereo not drawn) |  |  |  |  | 46%
25 | Cc1c(C(=O)NC2CCCC2)oc2ccc(S(=O)(=O)N3CC(C)CC(C)C3)cc12 (stereo not drawn) | 90 nM | 7400 nM |  | 82 | 95%
26 | COc1ccccc1CNC(=O)c1oc2ccc(S(=O)(=O)N3CC(C)CC(C)C3)cc2c1C (stereo not drawn) | 58 nM | 22800 nM |  | 393 | 97%
27 | CCCCNC(=O)c1oc2ccc(S(=O)(=O)N3CC(C)CC(C)C3)cc2c1C (stereo not drawn) | 94 nM | 9400 nM |  | 100 | 92%
28 | CCN(Cc1ccccc1)C(=O)c1oc2ccc(S(=O)(=O)N3CC(C)CC(C)C3)cc2c1C (stereo not drawn) | 92 nM | 3100 nM | 435 nM | 34 | 98%
